Test system: human endothelial cells in co-culture (AngioKit)
Test: AngioKit in vitro angiogenesis model (tubule formation, CD31 staining, image analysis)
Format: cell-based
Protocol: The in vitro model we used was the AngioKit (Biopredic—ref ZHA-1000—lot no. 25173T) which approaches a more global vision of angiogenesis. In this model, human endothelial cells are seeded in a specific medium in co-culture with another type of human cells. In the initial phase, the endothelial cells form small islets. They begin to proliferate and then enter into a migration phase which leads to formation of structures of filamentous tubule form in the matrix. At the end of 10 to 12 days, the connections established form a network of anastomosed tubules. The staining of the tubules is obtained by specific marking of the antigen of surface antigen CD31 (PECAM-1), which is expressed by the endothelial cells.
The test is validated by staining the tubules and verification of the inhibitory and activating action of two pharmacological compounds known to act on angiogenesis. The action on angiogenesis of the active ingredients tested was evaluated by quantitative image analysis.
The cells were cultured in 24-well plates in an incubator at 37° C. under a humid atmosphere containing 5% CO2.
The specific culture medium was eliminated and the cells were placed under different experimental conditions:
Negative control: suramin, agent inhibiting formation of tubules—final concentration: 20 μM;
Positive control: VEGF, activating agent of angiogenesis—final concentration: 2 ng/ml;
Composition for the face: Since this composition of essential oils is not miscible in the culture medium, it was dissolved in absolute ethanol and tested at three concentrations (the non-cytotoxic character of which had been verified in advance by 24-hour contact with normal human fibroblasts): 0.005%-0.01%-0.05% (v/v); and
Solvent control: since ethanol could have effects on angiogenesis, it was tested at the final concentration required for dissolving the essential oils composition: 0.1% (v/v).
Each condition was implemented in duplicate. Microscopic observation of the cells was performed daily to monitor formation of tubules as shown in the photograph of FIG. 2.
The media were eliminated and the conditions were renewed on the 3rd, 6th and 9th day of the experiment. On the 10th day, the cells were fixed and stained: after rinsing in the PBS buffer, the cells were fixed in a 70% ethanol solution cooled at −20° C. for 30 minutes. The cells were then incubated for 1 hour at 37° C. with the human anti-CD-31 ZIS-3090 antibody (TCS CellWorks). […]
Evaluation of the angiogenic power of the compound tested was quantified by image analysis (Olympus IX70 Auto Analysis System) by measuring the length of the tubules developed (in μm) and the number of junctions established within the anastomosed network. […]

`Cc1ccc(C(=O)Nc2ccc(S(=O)(=O)O)c3cc(S(=O)(=O)O)cc(S(=O)(=O)O)c23)cc1NC(=O)c1cccc(NC(=O)Nc2cccc(C(=O)Nc3cc(C(=O)Nc4ccc(S(=O)(=O)O)c5cc(S(=O)(=O)O)cc(S(=O)(=O)O)c45)ccc3C)c2)c1` [suramin] was tested, and the inhibition at 20 µM (Homo sapiens, Endothelial cell, 240 h, read-out: inhibition of the length of the tubular network compared to the control) was 49% and the “number of junctions diminished by a factor compared to the control” value (suramin 20 μM, day 10) was 5.7.

VEGF was tested, and the “number of junctions augmented by a factor compared to the control” value (VEGF 2 ng/ml, day 10) was 1.7 and the “stimulator effect on the length of the tubular network compared to the control” value (VEGF 2 ng/ml, day 10) was 54%.

Source: US7666454B2, “Cosmetic composition comprising an essential oil extracted from Helichrysum italicum” (L'Occitane, priority 2001, dated 2010)
